Series [1] is described as follows: Inhibition of HIV1 HXB2 gp41-mediated cell-cell fusion between viral envelope-expressing human HL2/3 cells to human TZM-bl cells by luciferase reporter assay. Type of series: cell-based. Conditions: Human immunodeficiency virus 1, HXB2, TZM-bl. On the technique in general: Reporter assays use an easily measured gene product as a stand-in for the process of interest.

The test system of series [2] is Human immunodeficiency virus 1. Put plainly: Antiviral activity against HIV-1 Ba-L infected in human MAGI-CCR5 cells assessed as inhibition of viral replication after 48 hrs by chemiluminescence assay. In kind it is functional, organism-based. Conditions: Human immunodeficiency virus 1, Ba-L, MAGI-CCR5, 48 h.
Series [3] in a line: Cytotoxicity against human MAGI-CCR5 cells assessed as inhibition of cell viability by MTS assay. Type of series: cell-based. The note with it: read-out: TC50 (the source's name). A general note: Formazan colour is commonly taken as a measure of viable cells.
The nature of series [4]: Cytotoxicity against human TZM-bl cells assessed as inhibition of cell viability by resazurin assay. The note with it: read-out: TC50 (the source's name). On the technique in general: Resazurin is reduced to fluorescent resorufin, in cell work by metabolically active cells.
Series [5] in a line: Binding affinity to HIV1 Envelope glycoprotein gp41 Fe(env2.0)3 using C18FL as probe by fluorescence assay. Details: species or system Human immunodeficiency virus 1.
Series [6] relates to Human immunodeficiency virus 1. Put plainly: Antiviral activity against HIV-1 3B infected in human MAGI-CCR5 cells assessed as inhibition of viral replication after 48 hrs by chemiluminescence assay. Type of series: functional, organism-based. The note with it: Human immunodeficiency virus 1, 3B, MAGI-CCR5, 48 h.

Bounds are passed on as bounds.

With `O=C(O)c1cccc(Cn2ccc3ccc(-c4cccc(O)c4)cc32)c1`, the figures for the EC50 in series [1] and in series [2] were 8 µM and 23 µM, respectively. The CC50 in series [3] came to 94 µM; in series [4], 100 µM.

For the compound `O=C(O)c1cccc(Cn2ccc3cc(-c4ccc5cc(Cl)ccc5n4)ccc32)c1`, the results for the EC50 in series [1] and in series [2] were 8 µM and 6 µM, respectively. Besides, in series [4], the CC50 stood at 100 µM.

As to `COc1cccc(Cn2cnc3ccc(-c4ccc5ccn(Cc6cccc(C(=O)O)c6)c5c4)cc32)c1`, affinity in series [5] was put at a Ki of 4.7 µM. Also, the results for the concentration for a half-maximal effect (EC50) in series [1], in series [2] and in series [6] were 45 µM, 56 µM and 63 µM, respectively. The CC50 in series [3] and in series [4] was more than 100 µM in each case.

On to `COc1ccc(Cn2ccc3ccc(-c4ccc5ccn(Cc6cccc(C(=O)O)c6)c5c4)cc32)cc1`, for which the EC50 in series [2] and in series [6] was 0.9 µM throughout. Moreover, the CC50 in series [3] is 32 µM; in series [4], 20 µM.

On to `NC(=O)c1cccc(Cn2ccc3ccc(-c4ccc5ccn(Cc6cccc(C(=O)O)c6)c5c4)cc32)c1`, for which the affinity in series [5] corresponds to a Ki of 0.8 µM. In addition, the values for the EC50 in series [1], in series [2] and in series [6] were 6 µM, 39 µM and 51 µM, respectively. In addition, the CC50 in series [3] and in series [4] was more than 100 µM in each case.

In the case of `Cn1ccc2ccc(-c3ccc4ccn(Cc5cccc(C(=O)O)c5)c4c3)cc21`, the inhibition constant (Ki) – broadly, the dissociation constant of the complex between target and ligand, obtained from inhibition or displacement – in series [5] is 0.3 µM. Also, the EC50 (in general, the concentration at which the effect is half-maximal) in series [1] came to 1.3 µM; in series [2], 4.5 µM; in series [6] it was 4.3 µM. The CC50 in series [3] and in series [4] was more than 50 µM throughout.

For `O=C(O)c1cccc(Cn2ccc3ccc(-c4ccc5ccn(Cc6ccc(COc7ccccc7)cc6)c5c4)cc32)c1`, in series [5], the Ki came to 6.2 µM. Further, the EC50 in series [1] came out at 17 µM; in series [2] it was 27 µM; in series [6], 32 µM. Also, the CC50 in series [3] and in series [4] was more than 100 µM in each case.

Turning to `COc1cccc(Cn2ccc3ccc(-c4ccc5c(c4)ncn5Cc4cccc(C(=O)O)c4)cc32)c1`, in series [5], the Ki was 3.8 µM. The EC50 in series [1] was 6 µM; in series [2], 48 µM; in series [6], more than 100 µM. For the same compound, the CC50 in series [3] and in series [4] was more than 100 µM in each case.

`COc1cccc(Cc2c[nH]c3cc(-c4ccc5c(Cc6cccc(C(=O)O)c6)c[nH]c5c4)ccc23)c1` returned an inhibition constant (Ki) in series [5] of 0.9 µM. In addition, the EC50 was 4 µM in series [1], 5.9 µM in series [2] and 6.2 µM in series [6]. The CC50 was 12 µM in series [3] and 500 µM in series [4].

As for `O=C(O)c1cccc(Cn2ccc3ccc(-c4ccc5cc(Cl)ccc5n4)cc32)c1`, in series [2], the half-maximal effective concentration (EC50) came out at 48 µM. In addition, the CC50 was more than 100 µM in series [3] and 50 µM in series [4].

In series [5], `O=C(O)c1cccc(Cc2c[nH]c3cc(-c4ccc5cc[nH]c5c4)ccc23)c1` returned a Ki of 0.6 µM. Besides, the EC50 in series [1] was 6 µM; in series [2], 13 µM; in series [6], 14 µM. Besides, the CC50 in series [3] stood at 23 µM; in series [4], 290 µM.

Consider `O=C(O)c1cccc(Cn2ccc3cc(-c4ccc5ccn(Cc6cccc(C(=O)O)c6)c5c4)ccc32)c1`, for which, in series [5], the affinity, expressed as Ki, was 0.7 µM. Further, the EC50 in series [1] is 2 µM; in series [2], 20 µM; in series [6], 17 µM. For the same compound, the CC50 in series [3] and in series [4] was more than 100 µM throughout.

On to `O=C(O)c1cccc(Cn2ccc3ccc(-c4ccc5ccn(Cc6ccccc6)c5c4)cc32)c1`, for which, in series [5], the Ki turned out to be 3.5 µM. The results for the EC50 in series [1], in series [2] and in series [6] were 2 µM, 4.4 µM and 4.6 µM, respectively. In addition, the CC50 was more than 100 µM in series [3] and more than 50 µM in series [4].

As for `O=C(O)c1cccc(Cn2ccc3ccc(-c4ccc5ccn(Cc6ccc(C(F)(F)F)cc6)c5c4)cc32)c1`, in series [5], the affinity, expressed as Ki, was 1 µM. For the same compound, the concentration giving a half-maximal response (EC50) was found to be 2 µM in series [1], 0.9 µM in series [2] and 1 µM in series [6]. The CC50 in series [3] was 52 µM; in series [4], more than 50 µM.

Compound `Cn1nnc2ccc(Cn3ccc4ccc(-c5ccc6ccn(Cc7cccc(C(=O)O)c7)c6c5)cc43)cc21` had a Ki in series [5] of 1.5 µM. The EC50 in series [1] is 2.5 µM; in series [2], 6.6 µM; in series [6], 9.4 µM. Further, the CC50 in series [3] was 52 µM; in series [4], more than 100 µM.

`O=C(O)c1cccc(Cc2c[nH]c3ccc(-c4ccc5cc[nH]c5c4)cc23)c1` gave a Ki in series [5] of 1.7 µM. In addition, the EC50 in series [1] stood at 5 µM; in series [2], 13 µM; in series [6], 13 µM. In addition, the CC50 in series [3] stood at 80 µM; in series [4], 194 µM.

`COc1cccc(Cn2cnc3cc(-c4ccc5ccn(Cc6cccc(C(=O)O)c6)c5c4)ccc32)c1` came in with a Ki in series [5] of 5.3 µM. Besides, the EC50 in series [1] was 56 µM; in series [2] it was 28 µM; in series [6], 49 µM. In addition, the CC50 in series [3] and in series [4] was more than 100 µM each time.

In series [5], `O=C(O)c1cccc(Cn2ccc3ccc(-c4ccc5ccn(Cc6ccc(-c7ccccc7)cc6)c5c4)cc32)c1` registered a Ki of 2 µM. For the same compound, the EC50 in series [1] came out at 13 µM; in series [2], 2.1 µM; in series [6], 2 µM. The results for the CC50 in series [3] and in series [4] were 55 µM and more than 50 µM, respectively.

In series [5], `COc1cccc(Cn2ccc3ccc(-c4ccc5c(Cc6cccc(C(=O)O)c6)c[nH]c5c4)cc32)c1` showed an inhibitory constant (Ki) of 1.6 µM. Moreover, the EC50 in series [1] is 7 µM; in series [2] it was 18 µM; in series [6], 18 µM. For the same compound, the CC50 was determined as 34 µM in series [3] and 57 µM in series [4].

In series [5], `COc1cccc(Cc2c[nH]c3cc(-c4ccc5ccn(Cc6cccc(C(=O)O)c6)c5c4)ccc23)c1` had a Ki of 0.9 µM. The EC50 in series [1] was 6 µM; in series [2], 5.6 µM; in series [6], 5.8 µM. Further, the CC50 in series [3] is 24 µM; in series [4] it was 33 µM.

In turn, `COc1cccc(Cn2ccc3ccc(-c4ccc5ccn(Cc6cccc(C(=O)O)c6)c5c4)cc32)c1` returned a Ki in series [5] of 1.1 µM. The EC50 came to 1 µM in series [1], 0.9 µM in series [2] and 0.9 µM in series [6]. Moreover, the CC50 is 37 µM in series [3] and 71 µM in series [4].

`COc1ccc(Cn2ccc3cc(-c4ccc5ccn(Cc6cccc(C(=O)O)c6)c5c4)ccc32)cc1`: in series [5], the Ki worked out at 4.2 µM. The results for the EC50 in series [1], in series [2] and in series [6] were 3.5 µM, 6.9 µM and 8.3 µM, respectively. In addition, the CC50 in series [3] came to 24 µM; in series [4] it was 91 µM.

`COC(=O)c1cccc(Cc2c[nH]c3ccc(-c4ccc5[nH]cc(Cc6cccc(C(=O)O)c6)c5c4)cc23)c1` had an inhibition constant (Ki) in series [5] of 1.2 µM. The EC50 in series [1] turned out to be 2 µM; in series [2], 5 µM; in series [6], 4.8 µM. For the same compound, the CC50 in series [3] stood at 31 µM; in series [4], 99 µM.

In the case of `COc1cccc(-c2ccc3ccn(Cc4cccc(C(=O)O)c4)c3c2)c1`, the EC50 in series [1] came out at 14 µM; in series [2], 28 µM. Also, the CC50 in series [3] and in series [4] was more than 100 µM in each case.

In series [5], `O=C(O)c1cccc(Cn2ccc3ccc(-c4ccc5ccn(Cc6ccc(F)cc6)c5c4)cc32)c1` showed a Ki of 1.7 µM. Also, the EC50 turned out to be 1.1 µM in series [1] and 1.6 µM in series [2]. For the same compound, the CC50 in series [4] was more than 25 µM.

The values are drawn from ChEMBL document CHEMBL3286109, “Structure-activity relationship studies of indole-based compounds as small molecule HIV-1 fusion inhibitors targeting glycoprotein 41” (J Med Chem, 2014).
